Assay results: the CheMixHub ionic liquid set

Assay: xn = mol fraction of the nth substance listed

Cn1cc[n+](CCO)c1.O=S(=O)([O-])C(F)(F)C(F)(F)C(F)(F)C(F)(F)F + O
101 kPa
Settings	electrical conductivity [S/m]	viscosity [mPa·s]
298.15 K, x1 = 0.02322	4.64	2.48
298.15 K, x1 = 0.02741	4.83	2.81
298.15 K, x1 = 0.05114	–	5.32
298.15 K, x1 = 0.05966	–	6.3
298.15 K, x1 = 0.09831	4.54	11.5
298.15 K, x1 = 0.1816	2.58	27.4
298.15 K, x1 = 0.6778	0.116	256
308.15 K, x1 = 0.04384	–	3.39
308.15 K, x1 = 0.0644	–	5.13
308.15 K, x1 = 0.06999	–	5.73
308.15 K, x1 = 0.07565	–	6.11
308.15 K, x1 = 0.08994	–	7.61
308.15 K, x1 = 0.1303	–	11.95
308.15 K, x1 = 0.1442	–	13.84
308.15 K, x1 = 0.2068	–	21.6
308.15 K, x1 = 0.3955	–	53.9
318.15 K, x1 = 0.02322	–	1.601
318.15 K, x1 = 0.03214	–	2.096
318.15 K, x1 = 0.04384	–	2.67
318.15 K, x1 = 0.05966	–	3.7
318.15 K, x1 = 0.09831	–	6.23
318.15 K, x1 = 0.1303	–	8.76
318.15 K, x1 = 0.2329	–	17.91

CCCC[P+](CC)(CC)CC.N#Cc1ccc[n-]1 + OCCN(CCO)CCO
100 kPa
Settings	electrical conductivity [S/m]	viscosity [mPa·s]
293.15 K, x1 = 0.005	0.0013	–
293.15 K, x1 = 0.012	0.0027	–
293.15 K, x1 = 0.029	0.0046	980
293.15 K, x1 = 0.035	0.005	–
293.15 K, x1 = 0.223	–	810
293.15 K, x1 = 0.459	0.0205	–
298.15 K, x1 = 0.018	–	629
303.15 K, x1 = 0.223	–	341
303.15 K, x1 = 0.508	–	278

COCCOCCOC + CCCC[n+]1ccn(C)c1.O=S(=O)([N-]S(=O)(=O)C(F)(F)F)C(F)(F)F
Settings	electrical conductivity [S/m]
294.5 K, 100 kPa, x2 = 0.03433	0.44

CC[n+]1ccn(CCOC)c1.O=S(=O)([N-]S(=O)(=O)C(F)(F)F)C(F)(F)F + CCO
viscosity [mPa·s], 100 kPa
Settings	x1 = 0.1	x1 = 0.1947	x1 = 0.2995	x1 = 0.4	x1 = 0.5002	x1 = 0.6001	x1 = 0.6999	x1 = 0.8	x1 = 0.9	x1 = 1
288.15 K	2.988	5.32	8.21	12.02	17.17	22.86	29.81	37.73	47.39	54.62
293.15 K	2.648	4.62	7.03	10.16	14.5	19.09	24.64	30.74	38.01	43.63
298.15 K	2.361	4.046	6.09	8.7	12.31	16.25	20.6	25.4	31.15	35.49
303.15 K	2.117	3.591	5.32	7.53	10.53	13.87	17.61	21.35	25.87	29.33
308.15 K	1.907	3.195	4.688	6.58	9.1	11.89	15.14	18.22	21.81	24.58
313.15 K	1.725	2.861	4.162	5.799	7.91	10.27	13.06	15.8	18.68	20.86
318.15 K	1.568	2.576	3.743	5.15	6.95	8.97	11.36	13.73	16.27	18.03

C[N+](C)(C)CCC[n+]1ccccc1.N#C[N-]C#N.N#C[N-]C#N + CO
100 kPa
Settings	viscosity [mPa·s]
293.15 K, x1 = 0.3999	69.9
293.15 K, x1 = 0.8995	950
303.15 K, x1 = 0.5002	78.6
303.15 K, x1 = 0.7003	184
313.15 K, x1 = 0.0999	3.18
313.15 K, x1 = 0.3999	31.9
313.15 K, x1 = 0.5002	53.3
313.15 K, x1 = 0.7998	145
313.15 K, x1 = 1	386
323.15 K, x1 = 0.3002	13.6
323.15 K, x1 = 0.3999	23.6
323.15 K, x1 = 0.5002	38.3
323.15 K, x1 = 0.6001	54.1
333.15 K, x1 = 0.0999	2.54
333.15 K, x1 = 0.2001	6.12
333.15 K, x1 = 0.3999	18.5
333.15 K, x1 = 0.6001	38.5

O=C([O-])c1ccccc1.[Na+] + CCOS(=O)(=O)[O-].CC[n+]1ccn(C)c1 + O
viscosity [mPa·s], 101.3 kPa
Settings	293.15 K	298.15 K	303.15 K	308.15 K	313.15 K
x1 = 0.0001784, x2 = 0	1.009	0.897	0.803	0.727	0.651
x1 = 0.0001804, x2 = 0.001795	1.079	0.966	0.851	0.757	0.685
x1 = 0.0001842, x2 = 0.002697	1.114	0.994	0.883	0.795	0.716
x1 = 0.0001899, x2 = 0.003589	1.144	1.024	0.907	0.819	0.735
x1 = 0.0005403, x2 = 0	1.014	0.903	0.809	0.733	0.657
x1 = 0.0005539, x2 = 0.001794	1.086	0.973	0.858	0.764	0.692
x1 = 0.0005579, x2 = 0.002696	1.121	1.001	0.89	0.802	0.723
x1 = 0.0005619, x2 = 0.003587	1.151	1.032	0.915	0.827	0.743
x1 = 0.0009002, x2 = 0	1.019	0.908	0.814	0.738	0.662
x1 = 0.0009234, x2 = 0.001794	1.092	0.979	0.864	0.77	0.698
x1 = 0.0009314, x2 = 0.002695	1.128	1.008	0.897	0.809	0.73
x1 = 0.0009412, x2 = 0.003586	1.158	1.039	0.922	0.834	0.75
x1 = 0.001258, x2 = 0	1.024	0.913	0.819	0.743	0.667
x1 = 0.001287, x2 = 0.001793	1.098	0.984	0.869	0.776	0.703
x1 = 0.001299, x2 = 0.002694	1.134	1.014	0.903	0.815	0.737
x1 = 0.001311, x2 = 0.003585	1.165	1.047	0.929	0.841	0.757
x1 = 0.001619, x2 = 0	1.029	0.918	0.824	0.748	0.672
x1 = 0.001651, x2 = 0.001792	1.103	0.99	0.875	0.781	0.709
x1 = 0.001674, x2 = 0.002693	1.14	1.02	0.91	0.821	0.742
x1 = 0.001689, x2 = 0.003583	1.172	1.053	0.936	0.848	0.764
x1 = 0.001978, x2 = 0	1.034	0.923	0.829	0.753	0.677
x1 = 0.002025, x2 = 0.001792	1.108	0.997	0.881	0.786	0.715
x1 = 0.002045, x2 = 0.002692	1.146	1.027	0.915	0.827	0.748
x1 = 0.002068, x2 = 0.003582	1.178	1.059	0.943	0.854	0.77
